Columns and labels:
[1] = tested on: human glial U-343 cells; test: IL-6 ELISA, basal secretion of IL-6; format: cell-based; settings: inhibitor 20 μM, 24 hours, serum-free medium, untreated control = 100%, read-out: Extracellular IL-6 concentration, % of untreated cells
Protocol: To analyze basal secretion of IL-6, human glial U-343 cells were cultured in 6 well plates (1.5×10^6 cells/well, Greiner) and treated with specific PEP inhibitors as indicated (20 μM each) for 24 hours in serum-free D-MEM medium (invitrogen). Aliquots of 40 μl conditioned medium were used to quantify the amount of secreted IL-6 by an human-specific IL-6 ELISA (Biosource) following the manufacturer's instructions. All data were obtained in quadruplicate. For the calculation of the IL-6 concentration in the cell culture medium after PEP-inhibitor treatment, the basal IL-6 concentration of the cell culture medium of untreated cell samples was set to 100%. The results of the measurement of the IL-6 concentration with PEP-inhibitor treated cells are presented as % of the untreated cell samples.

[2] = tested on: U-343 and SH-SY5Y cells; test: β-Amyloid ELISA, secreted β-amyloid peptides 1-40 and 1-42; format: cell-based; settings: Homo sapiens, inhibitor 20 μM, 24 hours, conditioned medium, untreated cells = 100%, cell line and peptide (1-40/1-42) not given, read-out: Extracellular Aβ-concentration, % of control
Protocol: The human glioma cell line, U-343 and the human neuroblastoma cell line, SH-SY5Y were maintained in Dulbecco's modified Eagle's medium (DMEM) containing 10% fetal bovine serum (Gibco BRL, Karlsruhe, Germany) and incubated at 37° C. in a 5% CO2 atmosphere. Culture media contained in general 60 μg/ml gentamycin (Gibco BRL, Karlsruhe, Germany).
To quantify intracellular and extracellular concentrations of 0-amyloid peptides, 1-40 and 1-42, U-343 and SH-SY5Y cells were cultured in 6 well plates (1.5×10^6 cells/well) and treated with specific PEP inhibitors (20 μM each) for 24 hours. For quantitation of secreted β-amyloid peptides the conditioned medium was collected and concentrated by lyophylisation. Likewise, after determination of the cell numbers/well (casy cell counter I, Schärfe System, Reutlingen, Germany), cells were lyzed with cell extraction buffer (Biosource, Solingen, Germany) according to the manufacturer's protocol. The protein concentration was determined by the method of Bradford (1976). Aliquots of 100 μl were used to quantify β-amyloid peptides 1-40 and 1-42 in quadruplicate by ELISA (IBL, Hamburg, Germany) following the manufacturer's instructions. All obtained intracellular and extracellular concentrations were normalized to cell numbers and protein concentration, respectively.
For the calculation of the concentration of β-amyloid peptides 1-40 and 1-42 in the cell culture medium after PEP-inhibitor treatment, the basal concentration of β-amyloid peptides 1-40 and 1-42 in the cell culture medium of untreated cell samples was set to 100%. The results of the measurement of the concentration of β-amyloid peptides 1-40 and 1-42 with PEP-inhibitor treated cells are presented as % of the untreated cell samples.

## O=C(OCCc1cccc([N+](=O)[O-])c1)c1ccccc1C(=O)c1cccs1 [Example 34]
[1]
  activity at 20 µM: 78.8%

## O=C(OCCc1cccs1)c1ccccc1C(=O)c1cccs1 [Example 14, 2-(Thienyl-ethyl-oxycarbonyl)-phenylthenon]
[1]
  activity at 20 µM: 41.4%
[2]
  activity at 20 µM: 200%

## CCCCCCOC(=O)c1ccccc1C(=O)c1cccs1 [Example 39]
[1]
  activity at 20 µM: 50.2%

## O=C(OC1Cc2ccccc2C1)c1ccccc1C(=O)c1cccs1 [Example 7, 2-([2,3-Dihydro-1H-indene-2-yl]-oxycarbonyl)-phenylthenon]
[1]
  activity at 20 µM: 85.3%
[2]
  activity at 20 µM: 205%

## O=C(OCc1ccccc1)c1ccccc1C(=O)c1cccs1 [Example 1]
[1]
  activity at 20 µM: 92.6%
[2]
  activity at 20 µM: 197%

## O=C(OCc1cccc(Cl)c1)c1ccccc1C(=O)c1cccs1 [Example 20]
[1]
  activity at 20 µM: 49.2%
[2]
  activity at 20 µM: 180%

## O=C(NCCCc1ccccc1)c1ccccc1C(=O)c1cccs1 [Example 31]
[1]
  activity at 20 µM: 30%
[2]
  activity at 20 µM: 203%

## O=C(OCCc1ccccc1)[C@H]1CCCC[C@H]1C(=O)c1cccs1 [Example 28]
[1]
  activity at 20 µM: 78.8%

## O=C(OCCc1ccccc1[N+](=O)[O-])c1ccccc1C(=O)c1cccs1 [Example 33]
[1]
  activity at 20 µM: 54.5%

## O=C(OCc1ccco1)c1ccccc1C(=O)c1cccs1 [Example 13, 2-(Furyl-methyl-oxycarbonyl)-phenylthenon]
[1]
  activity at 20 µM: 74.2%
[2]
  activity at 20 µM: 122%

## COc1cccc(CCOC(=O)c2ccccc2C(=O)c2cccs2)c1 [Example 35]
[1]
  activity at 20 µM: 46.7%

## O=C(OCc1ccccc1[N+](=O)[O-])c1ccccc1C(=O)c1cccs1 [Example 23]
[1]
  activity at 20 µM: 109%
[2]
  activity at 20 µM: 240%

## O=C(OCCc1cccc(F)c1)c1ccccc1C(=O)c1cccs1 [Example 38]
[1]
  activity at 20 µM: 33%

## O=C(OCCc1cc2ccccc2s1)c1ccccc1C(=O)c1cccs1 [Example 24, 2-(Benzo[b]thiophen-2-yl-ethyl-oxycarbonyl)-phenylthenon]
[1]
  activity at 20 µM: 66.9%
[2]
  activity at 20 µM: 165%

## O=C(OCCCc1ccccc1)c1ccccc1C(=O)c1cccs1 [Example 11]
[1]
  activity at 20 µM: 42.4%
[2]
  activity at 20 µM: 192%

## O=C(OCC1c2ccccc2-c2ccccc21)c1ccccc1C(=O)c1cccs1 [Example 4, 2-(Fluorenyl-methyl-oxycarbonyl)-phenylthenon]
[1]
  activity at 20 µM: 40.7%
[2]
  activity at 20 µM: 200%

## O=C(NCCc1ccccc1)c1ccccc1C(=O)c1ccco1 [Example 32]
[1]
  activity at 20 µM: 32%
[2]
  activity at 20 µM: 63.9%

## O=C(OCCc1cccc(O)c1)c1ccccc1C(=O)c1cccs1 [Example 46]
[1]
  activity at 20 µM: 35.8%

## O=C(OCc1ccccc1F)c1ccccc1C(=O)c1cccs1 [Example 41]
[1]
  activity at 20 µM: 46.4%

## Cc1ccc(CCOC(=O)c2ccccc2C(=O)c2cccs2)cc1 [Example 16, 2-(4-Methylphenylethyl-oxycarbonyl)-phenylthenon]
[1]
  activity at 20 µM: 26.7%
[2]
  activity at 20 µM: 180%

## O=C(OCc1ccccc1Cl)c1ccccc1C(=O)c1cccs1 [Example 21]
[1]
  activity at 20 µM: 62.1%
[2]
  activity at 20 µM: 220%

## O=C(OCCc1cccc(Cl)c1)c1ccccc1C(=O)c1cccs1 [Example 12]
[1]
  activity at 20 µM: 53.7%
[2]
  activity at 20 µM: 191%

## O=C(NCc1ccccc1)c1ccccc1C(=O)c1cccs1 [Example 29, 2-(Phenylmethyl-amincarbonyl)-phenylthenon]
[1]
  activity at 20 µM: 121%
[2]
  activity at 20 µM: 109%

## O=C(OCCN1C(=O)c2ccccc2C1=O)c1ccccc1C(=O)c1cccs1 [Example 10, 2-(Isoindolinyl-1,3-dione-ethyl-oxycarbonyl)-phenylthenon]
[1]
  activity at 20 µM: 143%
[2]
  activity at 20 µM: 125%

## O=C(NC1CC1c1ccccc1)c1ccccc1C(=O)c1cccs1 (stereo not shown) [Example 45]
[1]
  activity at 20 µM: 22%

## O=C(OCc1ccc([N+](=O)[O-])cc1)c1ccccc1C(=O)c1cccs1 [Example 3]
[1]
  activity at 20 µM: 245%
[2]
  activity at 20 µM: 141%

## O=C(OCCc1ccccc1)[C@@H]1CCCC[C@H]1C(=O)c1cccs1 (relative stereo) [Example 27, trans-1-(Thienylcarbonyl)-2-(phenyl-ethyl-oxycarbonyl)-cyclohexane]
[1]
  activity at 20 µM: 19.6%
[2]
  activity at 20 µM: 298%

## O=C(OCCc1ccccc1)c1ccccc1C(=O)c1cccs1 [Example 2]
[1]
  activity at 20 µM: 65.5%
[2]
  activity at 20 µM: 214%

## O=C(OCCc1ccc([N+](=O)[O-])cc1)c1ccccc1C(=O)c1cccs1 [Example 5, 2-(4-Nitrophenyl-ethyl-oxycarbonyl)-phenylthenon]
[1]
  activity at 20 µM: 102%
[2]
  activity at 20 µM: 160%

## O=C(OCc1cccc([N+](=O)[O-])c1)c1ccccc1C(=O)c1cccs1 [Example 22]
[1]
  activity at 20 µM: 103%
[2]
  activity at 20 µM: 153%

## O=C(OCCc1ccsc1)c1ccccc1C(=O)c1cccs1 [Example 17]
[1]
  activity at 20 µM: 26.5%
[2]
  activity at 20 µM: 237%

## O=C(OCc1cccc(Cl)c1Cl)c1ccccc1C(=O)c1cccs1 [Example 44]
[1]
  activity at 20 µM: 26.5%

## O=C(OCCc1ccccc1)c1ccccc1C(=O)c1ccco1 [Example 15, 2-(Phenyl-ethyl-oxycarbonyl)-1-(furylcarbonyl)-benzol]
[1]
  activity at 20 µM: 48.2%
[2]
  activity at 20 µM: 144%

## O=C(OCc1ccccc1Br)c1ccccc1C(=O)c1cccs1 [Example 40]
[1]
  activity at 20 µM: 36%

## O=C(NCCc1ccccc1)c1ccccc1C(=O)c1cccs1 [Example 30]
[1]
  activity at 20 µM: 42.3%
[2]
  activity at 20 µM: 205%

## O=C(OCCc1ccc(Cl)cc1)c1ccccc1C(=O)c1cccs1 [Example 37]
[1]
  activity at 20 µM: 72.5%

## O=C(OCCc1ccc2ccccc2c1)c1ccccc1C(=O)c1cccs1 [Example 8]
[1]
  activity at 20 µM: 93.7%
[2]
  activity at 20 µM: 165%

## O=C(OCc1ccc(Cl)cc1)c1ccccc1C(=O)c1cccs1 [Example 19, 2-(4-Chlorophenyl-methyl-oxycarbonyl)-phenylthenon]
[1]
  activity at 20 µM: 35.2%
[2]
  activity at 20 µM: 195%

## O=C(OCc1ccc(F)cc1)c1ccccc1C(=O)c1cccs1 [Example 42]
[1]
  activity at 20 µM: 32.4%

## O=C(OCCCc1cccs1)c1ccccc1C(=O)c1cccs1 [Example 25]
[1]
  activity at 20 µM: 69%
[2]
  activity at 20 µM: 197%

## O=C(OCCc1ccccc1Cl)c1ccccc1C(=O)c1cccs1 [Example 26]
[1]
  activity at 20 µM: 36.6%
[2]
  activity at 20 µM: 207%

## Cc1cccc(CCOC(=O)c2ccccc2C(=O)c2cccs2)c1 [Example 6]
[1]
  activity at 20 µM: 45.8%
[2]
  activity at 20 µM: 215%

## O=C(OCCc1ccc(F)cc1)c1ccccc1C(=O)c1cccs1 [Example 43]
[1]
  activity at 20 µM: 29.2%

## O=C(OCc1cccc(C(F)(F)F)c1)c1ccccc1C(=O)c1cccs1 [Example 36]
[1]
  activity at 20 µM: 79.8%

From patent US7592467B2, “Inhibitors of prolyl endopeptidase” (Probiodrug AG, priority 2005, dated 2009)
